In brackets after ≈: the same amount, converted by molar mass. Read-outs that look alike come from different tables or passages of the source.
Experiments:
S. aurues DHFR = S. aurues DHFR (Staphylococcus aureus, UniProt P0A017); assay: biochemical; assay type: biochemical
human DHFR = human DHFR (Homo sapiens (Human), UniProt P00374); assay: DHFR enzymatic inhibition (Ki), human DHFR; assay type: biochemical
S. aureus = assay: Antibacterial activity (MIC), whole-cell bacterial growth inhibition; assay type: cell-based, Staphylococcus aureus; settings: for MIC: Staphylococcus aureus
Excerpt: Antibacterial activity as measured by the minimal inhibitory concentrations (MIC) and minimal bactericidal concentrations of compounds are well known (see., e.g., National Committee for Clinical Laboratory Standards 2000 Performance standards for antimicrobial disk susceptibility tests: approved standard, 7th ed. M2-A7, vol. 20, no. 1, Committee for Clinical Laboratory Standards, Wayne, Pa.) In vitro testing for antibacterial activity may be accomplished through use of a whole-cell bacterial growth inhibition assay. For example, an […] assay identifies a substance that inhibits bacterial growth. Microtiter plates are prepared with serial dilutions of the test compound, adding to the preparation a given amount of growth substrate, and providing a preparation of bacteria. Inhibition of bacterial growth is determined, for example, by observing changes in optical densities of the bacterial cultures. Inhibition of bacterial growth is determined, for example, by comparing (in the presence and absence of a test compound) the rate of growth or the absolute growth of bacterial cells. Inhibition includes a reduction of one of the above measurements by at least 20%.

[1] = S. aureus in 20% serum, read-out: MIC in μg/ml S. aureus in 20% serum
[2] = S. aureus, read-out: MIC in μg/ml S. aureus

Sequence of human DHFR (P00374 whole entry): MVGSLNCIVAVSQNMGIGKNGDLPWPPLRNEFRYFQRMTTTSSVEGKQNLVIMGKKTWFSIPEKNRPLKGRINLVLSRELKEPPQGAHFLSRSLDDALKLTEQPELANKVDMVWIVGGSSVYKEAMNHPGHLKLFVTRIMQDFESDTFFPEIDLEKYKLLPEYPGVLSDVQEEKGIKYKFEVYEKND

SMILES | Ki (S. aurues DHFR; S. aureus DHFR) | Ki (human DHFR) | MIC (S. aureus; [1]) | MIC (S. aureus; [2]) | MIC in μg/ml S. aureus (S. aureus; S. aureus) | MIC in μg/ml S. aureus in 20% serum (S. aureus; S. aureus in 20% serum) | Ki (S. aurues DHFR)
CC(=O)c1cccc(-c2cc3nc(N)nc(N)c3cc2C)c1 [Compound 7, 1-(3-(2,4-diamino-6-methylquinazolin-7-yl)-phenyl)ethanone] | 0.48 nM | 26.3 nM | 1 µg/mL (≈ 3.42 µM) | 0.5 µg/mL (≈ 1.71 µM) |  |  | 
Cc1cc2c(N)nc(N)nc2cc1-c1ccc(N)cc1 [Compound 5, 7-(4-aminophenyl)-6-methylquinazoline-2,4-diamine] | 0.89 nM | 138 nM | 1 µg/mL (≈ 3.77 µM) | 1 µg/mL (≈ 3.77 µM) |  |  | 
COc1ccc2nc(-c3ccco3)n(-c3ccc4c(N)nc(N)nc4c3)c2n1 [Compound 37] | 0.039 nM | 797 nM | 0.5 µg/mL (≈ 1.34 µM) | 0.25 µg/mL (≈ 0.67 µM) |  |  | 
Cc1cc2c(N)nc(N)nc2cc1-c1cccc(CC#N)c1 [Compound 13, 2-(3-(2,4-diamino-6-methylquinazolin-7-yl)-phenyl)acetonitrile] | 0.5 nM | 44 nM | 2 µg/mL (≈ 6.91 µM) | 0.5 µg/mL (≈ 1.73 µM) |  |  | 
Nc1nc(N)c2ccc(-c3ccccc3N)cc2n1 [Compound 2, 7-(2-aminophenyl)quinazoline-2,4-diamine] | 15.3 nM | 3920 nM | 8 µg/mL (≈ 31.8 µM) | 8 µg/mL (≈ 31.8 µM) |  |  | 
COc1cc(-c2cc3nc(N)nc(N)c3cc2C)cc(OC)c1OC [Compound 33, 6-methyl-7-(3,4,5-trimethoxyphenyl) quinazoline-2,4-diamine] | 0.91 nM | 47.1 nM | 1 µg/mL (≈ 2.94 µM) | ≤ 0.5 µg/mL |  |  | 
Cc1cc2nc(-c3nccs3)n(-c3cc4nc(N)nc(N)c4cc3Cl)c2cc1C [Compound 34, 6-chloro-7-(5,6-dimethyl-2-(thiazol-2-yl)-1H-benzo[d]imidazol-1-yl)quinazoline-2,4-diamine] | 0.016 nM | 8.8 nM |  |  | ≦0.125 μg/ml | 2 µg/mL (≈ 4.74 µM) | 
Cc1cc2nc(-c3nccs3)n(-c3cc4nc(N)nc(N)c4cc3Cl)c2cc1C [Compound 25, 6-chloro-7-(5,6-dimethyl-2-(thiazol-2-yl)-1H-benzo[d]imidazol-1-yl)quinazoline-2,4-diamine] | 0.011 nM | 7.6 nM | 1 µg/mL (≈ 2.37 µM) | ≤ 0.125 µg/mL |  |  | 
Cc1cc2c(N)nc(N)nc2cc1-c1c[nH]c2ccccc12 [Compound 41, 7-(1H-indol-3-yl)-6-methylquinazoline-2,4-diamine] | 0.11 nM | 50.5 nM | 0.5 µg/mL (≈ 1.73 µM) | 0.25 µg/mL (≈ 0.864 µM) |  |  | 
Cc1ccc2c(c1)nc(-c1cccs1)n2-c1ccc2c(N)nc(N)nc2c1 [Compound 36] | 0.005 nM | 314 nM | 1 µg/mL (≈ 2.68 µM) | 1 µg/mL (≈ 2.68 µM) |  |  | 
Cc1cc2nc(-c3nccs3)n(-c3ccc4c(N)nc(N)nc4c3)c2cc1C [Compound 22, 7-[5,6-dimethyl-2-(thiazol-2-yl)-1H-benzo[d]-imidazol-1-yl]quinazoline-2,4-diamine] | 0.002 nM | 93.5 nM | ≤ 0.125 µg/mL | ≤ 0.125 µg/mL |  |  | 
Cc1cc2nc(C3CC3)n(-c3ccc4c(N)nc(N)nc4c3)c2cc1C [Compound 15, 7-(2-cyclopropyl-5,6-dimethyl-1H-benzo[d]-imidazol-1-yl)quinazoline-2,4-diamine] | 0.14 nM | 1160 nM | 1 µg/mL (≈ 2.9 µM) | ≤ 0.5 µg/mL |  |  | 
Cc1cc2nc(-c3ccsc3)n(-c3ccc4c(N)nc(N)nc4c3)c2cc1C [Compound 21, 7-(5,6-dimethyl-2-(thiophen-3-yl)-1H-benzo[d]-imidazol-1-yl)quinazoline-2,4-diamine] | 0.012 nM | 663 nM | 0.25 µg/mL (≈ 0.647 µM) | ≤ 0.125 µg/mL |  |  | 
Cc1c(C(=O)OC(C)(C)C)nc(-c2cccs2)n1-c1ccc2c(N)nc(N)nc2c1 [Compound 39, tert-butyl 1-(2,4-diaminoquinazolin-7-yl)-5-methyl-2-thiophen-2-yl)-1H-imidazole-4-carboxylate] |  |  | 2 µg/mL (≈ 4.73 µM) | 1 µg/mL (≈ 2.37 µM) |  |  | 
Cc1cc2c(N)nc(N)nc2cc1-c1cccc2[nH]ccc12 [Compound 9, 7-(1H-indol-4-yl)-6-methylquinazoline-2,4-diamine] | 0.61 nM | 245 nM | 1 µg/mL (≈ 3.46 µM) | 0.25 µg/mL (≈ 0.864 µM) |  |  | 
COc1ccc(-c2cc3nc(N)nc(N)c3cc2Cn2ccnc2)cc1OC [Compound 10, 6-((1H-imidazol-1-yl)methyl)-7-(3,4-dimethoxyphenyl)quinazoline-2,4-diamine] | 0.51 nM | 53.6 nM | 2 µg/mL (≈ 5.31 µM) | 8 µg/mL (≈ 21.3 µM) |  |  | 
Cc1cc2nc(-c3cccs3)n(-c3ccc4c(N)nc(N)nc4c3)c2cc1C [Compound 18, 7-(5,6-dimethyl-2-(thiophen-2-yl)-1H-benzo[d]-imidazol-1-yl)quinazoline-2,4-diamine] | 0.005 nM | 1030 nM | 0.5 µg/mL (≈ 1.29 µM) | ≤ 0.125 µg/mL |  |  | 

SMILES | Ki (S. aurues DHFR; S. aureus DHFR) | Ki (human DHFR) | MIC (S. aureus; [1]) | MIC (S. aureus; [2]) | MIC in μg/ml S. aureus (S. aureus; S. aureus) | MIC in μg/ml S. aureus in 20% serum (S. aureus; S. aureus in 20% serum) | Ki (S. aurues DHFR)
COc1ccc(OC)c(-c2ccc3c(N)nc(N)nc3c2)c1 [Compound 3, 7-(2,5-dimethoxyphenyl) quinazoline-2,4-diamine] |  | 345 nM | 8 µg/mL (≈ 27 µM) | 4 µg/mL (≈ 13.5 µM) |  |  | 4 nM
COc1cc2nc(-c3nccs3)n(-c3cc4nc(N)nc(N)c4cc3Cl)c2cc1OC [Compound 23, 6-chloro-7-(5,6-dimethoxy-2-(thiazol-2-yl)-1H-benzo[d]imidazol-1-yl)quinazo-line-2,4-diamine] | 0.011 nM | 320 nM | 0.5 µg/mL (≈ 1.1 µM) | ≤ 0.125 µg/mL |  |  | 
Cc1cc2c(N)nc(N)nc2cc1-c1cccc(C#N)c1 [Compound 11, 3-(2,4-diamino-6-methylquinazolin-7-yl)benzonitrile] | 1.2 nM | 55 nM | 2 µg/mL (≈ 7.26 µM) | 1 µg/mL (≈ 3.63 µM) |  |  | 
COc1cc2nc(-c3nccs3)n(-c3cc4nc(N)nc(N)c4cc3C)c2cc1OC [Compound 24, 7-(5,6-dimethoxy-2-(thiazol-2-yl)-1H-benzo[d]-imidazol-1-yl)-6-methylquin-azoline-2,4-diamine] | 0.019 nM | 170 nM | ≤ 0.5 µg/mL | ≤ 0.5 µg/mL |  |  | 
COc1cc2nc(-c3nccs3)n(-c3ccc4c(N)nc(N)nc4c3)c2cc1OC [Compound 35] | 0.16 nM | 854 nM | 0.25 µg/mL (≈ 0.596 µM) | 0.25 µg/mL (≈ 0.596 µM) |  |  | 
COc1ncc(-c2cc3nc(N)nc(N)c3cc2C)c(OC)n1 [Compound 29, 7-(2,4-dimethoxypyrimidin-5-yl)-6-methylquinazo-line-2,4-diamine] | 0.4 nM | 54.7 nM | 0.5 µg/mL (≈ 1.6 µM) | 0.5 µg/mL (≈ 1.6 µM) |  |  | 
Cc1cc2c(N)nc(N)nc2cc1-c1cnc2[nH]ccc2c1 [Compound 27, 6-methyl-7-(1H-pyrrolo[2,3-b]pyridin-5-yl)quin-azoline-2,4-diamine] | 2.6 nM | 235 nM | 4 µg/mL (≈ 13.8 µM) | 4 µg/mL (≈ 13.8 µM) |  |  | 
COCCn1c(-c2ccc3c(N)nc(N)nc3c2)nc2cc(C)c(C)cc21 [Compound 14, 7-(1-(2-methoxyethyl)-5,6-dimethyl-1H-benzo[d]-imidazol-2-yl)quinazoline-2,4-diamine] | 1.6 nM | 263 nM | 4 µg/mL (≈ 11 µM) | 4 µg/mL (≈ 11 µM) |  |  | 
CCOc1ccc(C(=O)N(CC)CC)cc1-c1cc2nc(N)nc(N)c2cc1C [Compound 40, 3-(2,4-diamino-6-methylquinazolin-7-yl)-4-ethoxy-N,N-diethylbenzamide] | 0.025 nM | 34 nM | 0.25 µg/mL (≈ 0.635 µM) | 0.25 µg/mL (≈ 0.635 µM) |  |  | 
COc1cnc(Cl)cc1-c1cc2nc(N)nc(N)c2cc1C [Compound 38, 7-(2-chloro-5-methyloxypyridin-4-yl)-6-methylquinazoline-2,4-diamine] | 1.4 nM | 52.4 nM | 1 µg/mL (≈ 3.17 µM) | 1 µg/mL (≈ 3.17 µM) |  |  | 
COc1ccc2nc(SCCC(C)(F)F)n(-c3ccc4c(N)nc(N)nc4c3)c2c1 [Compound 20, 7-(2-(3,3-difluorobutylthio)-6-methoxy-1H-benzo-[d]imidazol-1-yl)quinazoline-2,4-diamine] | 0.12 nM | 586 nM | 4 µg/mL (≈ 9.29 µM) | 0.5 µg/mL (≈ 1.16 µM) |  |  | 
Cc1cc2c(N)nc(N)nc2cc1-c1cc(N)cc(C#N)c1 [Compound 12, 3-amino-5-(2,4-diamino-6-methylquin-azolin-7-yl)benzonitrile] | 0.65 nM | 44 nM | 1 µg/mL (≈ 3.44 µM) | 1 µg/mL (≈ 3.44 µM) |  |  | 
COc1cc(-c2cc3nc(N)nc(N)c3cc2C)c(Cl)cn1 [Compound 28, 7-(5-chloro-2-methoxypyridin-4-yl)-6-methylquin-azoline-2,4-diamine] | 0.72 nM | 56 nM | 1 µg/mL (≈ 3.17 µM) | 0.5 µg/mL (≈ 1.58 µM) |  |  | 
Cc1cc2nc(-c3nccs3)n(-c3cc4nc(N)nc(N)c4cc3C)c2cc1C [Compound 26, 7-(5,6-dimethyl-2-(thiazol-2-yl)-1H-benzo[d]-imidazol-1-yl)-6-methylquin-azoline-2,4-diamine] |  | 2.9 nM | ≤ 0.125 µg/mL | ≤ 0.125 µg/mL |  |  | 0.03 nM
COc1ccccc1-c1ccc2c(N)nc(N)nc2c1 [Compound 1, 7-(2-methoxyphenyl)quinazoline-2,4-diamine] |  | 1140 nM | 4 µg/mL (≈ 15 µM) | 2 µg/mL (≈ 7.51 µM) |  |  | 2.7 nM
COC(=O)c1ccc2c(c1)nc(-c1nccs1)n2-c1ccc2c(N)nc(N)nc2c1 [Compound 32, methyl 1-(2,4-diaminoquinazolin-7-yl)-2-(thiazol-2-yl)-1H-benzo[d]imidazole-5-carboxylate] | 0.021 nM | 53.1 nM | 2 µg/mL (≈ 4.79 µM) | 0.25 µg/mL (≈ 0.599 µM) |  |  | 
